Test results from publication PMC10684765, “Inhibition of rat locus coeruleus neurons by prostaglandin E2 EP3 receptors: pharmacological characterization ex vivo” (Frontiers in Pharmacology, 2023).
Read-outs that look alike come from different tables or passages of the source.

What was measured:
EP3 receptor [1] = biological target: T1, EP3 receptor (Rattus norvegicus, UniProt P34980); test: inhibition of LC neuron firing, single-unit extracellular recording; shifted by EP3 antagonist L-798, […]
T1 construct: gene Ptger3; native receptor in locus coeruleus neurons, brain slices
T1 sequence (P34980 1-365): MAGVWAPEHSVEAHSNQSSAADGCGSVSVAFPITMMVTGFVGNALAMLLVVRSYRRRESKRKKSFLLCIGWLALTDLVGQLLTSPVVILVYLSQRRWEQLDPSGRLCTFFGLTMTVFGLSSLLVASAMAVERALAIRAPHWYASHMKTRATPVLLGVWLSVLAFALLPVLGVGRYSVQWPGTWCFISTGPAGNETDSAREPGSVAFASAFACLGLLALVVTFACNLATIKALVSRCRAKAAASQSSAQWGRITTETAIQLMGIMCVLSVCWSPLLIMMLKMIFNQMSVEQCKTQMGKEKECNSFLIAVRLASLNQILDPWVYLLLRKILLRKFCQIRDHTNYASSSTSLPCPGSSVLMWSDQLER

EP3 receptor [2] = biological target: T1, EP3 receptor; test: antagonism of sulprostone concentration-effect curves, single-unit recording in rat LC slices (Schild-derived fit)

EC50 (EP3 receptor [1]; read-out: (EC50)) | SMILES | further results
0.0507 µM | CCCCC(C)(O)C/C=C/[C@H]1[C@H](O)CC(=O)[C@@H]1CCCCCCC(=O)O (relative stereo) [misoprostol free acid] | 
 | COc1ccc(Br)cc1S(=O)(=O)NC(=O)/C=C/c1ccccc1Cc1ccc2ccccc2c1 [L-798,106] | Kb (EP3 receptor [2]): 5.77 ± 0.10 pKB
 | CCCCC[C@H](O)/C=C/[C@H]1[C@H](O)CC(=O)[C@@H]1C/C=C\CCCC(=O)O [prostaglandin E2] | EC50 (EP3 receptor [1]): 0.11 µM
0.0148 µM | CS(=O)(=O)NC(=O)CCC/C=C\C[C@H]1C(=O)C[C@@H](O)[C@@H]1/C=C/[C@@H](O)COc1ccccc1 [sulprostone] | 
